{
  "source": "patent US7449197B2",
  "about": "“Liposome formulation of 6,9-bis[(2-aminoethyl)-amino]benzo[g]isoquinoline-5, 10-dione dimaleate” (Cell Therapeutics Europe S.r.l., priority 1999, dated 2008)",
  "key": {"P388 murine leukemia": {"system": "P388 murine leukemia", "test": "Antitumor activity against P388 murine leukemia in mice (survival time, T/C %)", "format": "in vivo", "procedure": "Animals: mice were provided by Charles River Breeding Laboratories (Calco, Como, Italy); they were male mice of 6-8 weeks under standard housing conditions. Formulations: BBR 2778 dissolved and diluted in sterile water just before administration of 10 mg/kg to mice was used as reference. The liposome formulation of Example 4 was used. Tumor model: P388 murine leukemia, provided by NCI Frederick Cancer Facility (USA) is maintained through a series of intraperitoneal transplants in DBA2 mice. Mice were transplanted with 10^6 cells/mouse of P388 leukemia, the liposome compound and the reference standard were administered i.v. at days 1, 4, 7 after tumor transplant. The antitumor activity was determined as percent increase in the survival time of mice, expressed by the T/C % ratio of the mean survival time (TMS) of the treated group (T) to the mean survival time of the control group (C): […]"}, "CD1 mice": {"system": "CD1 mice", "format": "in vivo", "details": "40 or 60 mg/kg i.v. bolus"}, "mice": {"system": "mice", "details": "male, mouse, in vivo, iv, 40 mg/kg", "description": "The liposome formulations according to the invention were tested in vivo for the antitumor activity and toxicity. […] In particular, the inhibitory activity on sudden deaths was evaluated compared with the control group, which was administered with a formulation of the free drug."}},
  "note": "Marks after values point to notes of the source that are not given here.",
  "data": [
    {"smiles": "NCCNc1ccc(NCCN)c2c1C(=O)c1ccncc1C2=O.O=C(O)/C=C\\C(=O)O", "note": "[BBR 2778 solution, 6,9-bis-[(2-aminoethyl)amino]benzo[g]isoquinoline-5,10-dione dimaleate]", "values": [
      {"measurement": "T/C %", "setting": "P388 murine leukemia; 18 mg/kg/day i.v. at days 1, 4, 7 after tumor transplant", "value": "199** %"},
      {"measurement": "T/C %", "setting": "P388 murine leukemia; 27 mg/kg/day i.v. at days 1, 4, 7 after tumor transplant", "value": "226** %"},
      {"measurement": "T/C %", "setting": "P388 murine leukemia; 40 mg/kg/day i.v. at days 1, 4, 7 after tumor transplant, dimaleate", "value": "159** %"},
      {"measurement": "T/C %", "setting": "P388 murine leukemia; 40 mg/kg/day i.v. at days 1, 4, 7 after tumor transplant, listed as BBR 2778 in solution, dimaleate", "value": 159, "unit": "%"},
      {"measurement": "T/C %", "setting": "P388 murine leukemia; 60 mg/kg/day i.v. at days 1, 4, 7 after tumor transplant", "value": "36** %"},
      {"measurement": "death during or immediately after treatment", "setting": "CD1 mice", "value": "death of some animals is observed"},
      {"measurement": "toxicity (percent toxic deaths)", "setting": "mice", "value": 60.4, "unit": "%"}
    ]}
  ]
}
